Legend:
Assay type in all cases: toxicity, cell-based
[1] = system: U2OS; test: Incucyte cell viability with U2OS; conditions: human, 10 µM, compound concentration 10 uM
[2] = system: HEK-293T; test: Incucyte cell viability with HEK293T; conditions: human, 10 µM, compound concentration 10 uM
[3] = system: Fibroblast; test: Incucyte cell viability with human fibroblast; conditions: 10 µM, compound concentration 10 uM
Also: unitless GR value; below 1 slowed growth and below 0 cell loss.

| SMILES | Growth Rate ([1]; 0 h, replicate number 1) | Growth Rate ([1]; 6 h, replicate number 2) | Growth Rate ([1]; 12 h, replicate number 2) | Growth Rate ([1]; 18 h, replicate number 2) | Growth Rate ([1]; 24 h, replicate number 2) | Growth Rate ([2]; 0 h, replicate number 2) | Growth Rate ([2]; 6 h, replicate number 1) | Growth Rate ([2]; 12 h, replicate number 1) | Growth Rate ([2]; 18 h, replicate number 1) | Growth Rate ([2]; 18 h, replicate number 2) | Growth Rate ([2]; 24 h, replicate number 1) | Growth Rate ([2]; 24 h, replicate number 2) | Growth Rate ([3]; 6 h, replicate number 1) | Growth Rate ([3]; 6 h, replicate number 2) | Growth Rate ([3]; 12 h, replicate number 1) | Growth Rate ([3]; 12 h, replicate number 2) | Growth Rate ([3]; 18 h, replicate number 1) | Growth Rate ([3]; 18 h, replicate number 2) | Growth Rate ([3]; 24 h, replicate number 1) | Growth Rate ([3]; 24 h, replicate number 2) | other results |
| --- | --- | --- | --- | --- | --- | --- | --- | --- | --- | --- | --- | --- | --- | --- | --- | --- | --- | --- | --- | --- | --- |
| Clc1cccc(Nc2nccc(NCCCN3CCOCC3)n2)c1 | -0.75 | 0.73 | 0.73 | 0.82 | 0.7 | 0.13 | 0.27 | 0.34 | 0.37 | 0.82 | 0.38 | 0.69 | 0.51 | 0.14 | 0.59 | 0.39 | 0.6 | 0.57 | 0.48 | 0.53 | Growth Rate ([3]; 0 h, replicate number 1): -0.99; Growth Rate ([3]; 0 h, replicate number 2): -0.07 |
| COc1ccc(C(F)(F)F)cc1NC(=O)Nc1ccc(Oc2cc(C)nc(N)n2)c2ccccc12 | -1 |  |  |  |  | -0.09 | 0.58 | 0.67 | 0.55 | 0.87 | 0.6 | 0.81 |  | 0.32 |  | 0.87 |  | 0.85 |  | 0.89 | Growth Rate ([2]; 12 h, replicate number 2): 0.92; Growth Rate ([3]; 0 h, replicate number 1): -1; Growth Rate ([3]; 0 h, replicate number 2): -0.09 |
| CCc1ncnc(N2CCN(C(C)=O)CC2)c1C#Cc1ccc(N)nc1.Cl.Cl | -0.47 |  | 0.99 | 0.8 | 0.68 | -0.97 | -0.05 | 0.06 | 0.05 | 0.01 | 0.01 | 0.02 |  | 0.3 | 0.68 | 0.76 | 0.66 | 0.52 | 0.61 | 0.53 | Growth Rate ([1]; 6 h, replicate number 1): 0.86; Growth Rate ([1]; 12 h, replicate number 1): 0.73; Growth Rate ([1]; 18 h, replicate number 1): 0.73; Growth Rate ([1]; 24 h, replicate number 1): 0.7; Growth Rate ([2]; 6 h, replicate number 2): -0.04; Growth Rate ([2]; 12 h, replicate number 2): -0.05 |
| Cn1c(Nc2c(Cl)cccc2Cl)nc2ccc3nc[nH]c(=O)c3c21 | -0.24 | 0.19 | 0.74 | 0.83 | 0.85 | -1 | 0.08 |  |  |  |  |  | 0.64 | 0.1 | 0.65 | 0.35 | 0.71 | 0.42 | 0.51 | 0.33 | Growth Rate ([1]; 0 h, replicate number 2): 0.87; Growth Rate ([1]; 6 h, replicate number 1): 0.95; Growth Rate ([1]; 12 h, replicate number 1): 0.97; Growth Rate ([1]; 18 h, replicate number 1): 0.86; Growth Rate ([1]; 24 h, replicate number 1): 0.98; Growth Rate ([2]; 6 h, replicate number 2): 0.03 |
| CCNc1ccc(-c2nn(-c3ccccc3C)c3c2C(C)Cc2nc(NC(=O)OC)sc2-3)cn1.O=C(O)C(F)(F)F (stereo not drawn) | -0.28 | 0.13 | 0.24 | 0.25 | 0.07 | -0.93 | -0.42 | -0.41 | -0.23 | 0.03 | -0.1 | -0.01 | -0.81 | -0.7 | -0.55 | -0.37 | -0.28 | -0.19 | -0.11 | -0.06 | Growth Rate ([1]; 6 h, replicate number 1): 0.5; Growth Rate ([1]; 12 h, replicate number 1): 0.39; Growth Rate ([1]; 18 h, replicate number 1): 0.27; Growth Rate ([1]; 24 h, replicate number 1): -0.06; Growth Rate ([2]; 6 h, replicate number 2): 0.14; Growth Rate ([2]; 12 h, replicate number 2): -0.12 |
